# Test results as given in patent US20040143461A1, “Generating, viewing, interpreting, and utilizing a quantitative database of metabolites” (Lipomics Technologies, Inc., priority 2001, published 2004).
# Like-named read-outs stand apart in the source and are kept apart here.
# Experiments:
# heart lipid metabolome = system: heart lipid metabolome
# Procedure: (§1) Mouse tissue and plasma samples were a generous donation to Lipomics Technologies from Dr. Edward Leiter of the Jackson Laboratory (Bar Harbor, Me.). Samples included the plasma, heart, liver and inguinal adipose of mice treated with pharmaceuticals or their corresponding controls.
# (§2) In both studies, five treated and five control mice were used. Following the treatments and the killing of the mice, tissues and plasma were taken, chilled to −80° C. and shipped to the analysis laboratory at Lipomics Technologies in a frozen state.
# (§3) For the analysis of liver and heart tissues, 25 mg of tissue were placed in a ground glass homogenizer and internal standards were added. The internal standards for use in the analyses of these tissues may take many forms, but in this instance consisted of: 4.75 μg of N-pentadecenoyl-D-erythro-sphingosylphorylcholine; 74.78 μg of 1,2 diheptadecanoylphosphatidylcholine; 33.57 μg of 1,2-diheptadecenoylphosphatidylserine (for phosphatidylserine); 24.13 μg of 1,2-diheptadecenoylphosphatidylethanolamine; 13.38 μg of 1,1′,2,2′-tetraheptadecaenoyl cardiolipin (for cardiolipin); 1.12 μg of pentadecaenoic acid; 27.82 μg of triheptadecaenoic acid; 1.56 μg of cholesteryl heptadecanoate; and 27.70 μg of stigmasterol.
# (§4) The solution mixture consisting of sample, fluid extractant, and internal standards was homogenized by twelve strokes with a ground-glass homogenizer. Following homogenization, 1.8 ml of 0.01 M potassium chloride was added, and the solution was vigorously mixed. The organic fraction containing the lipids and the internal standards was separated from the polar fraction of the mixture by centrifugation. The lipid extract was removed from the mixture and concentrated under a stream of nitrogen in preparation for lipid class separation.
# (§5) The separation of lipid classes was performed by preparative thin-layer chromatography (TLC), essentially as previously described (Watkins et al., Lipids 36:247-254, 2001). To remove any residual metal or other damaging contaminants on the TLC plates, each plate was washed prior to use. Washing the plates is a three-step process that involves impregnating each plate with ethylenediamine tetraacetic acid (EDTA) and rinsing the plates once with methanol and once with chloroform. Each plate is first impregnated with 1 mM EDTA, pH 5.5, by ascending development using the method of Ruiz (J. Lipid Res. 38, 1482-1489, 1997). After each plate was completely developed, it was dried in air overnight. Once dry, each plate was developed in methanol, dried, and developed in chloroform in the same direction as the development with EDTA. The washed plates were then dried in air. Just prior to use, each plate was activated by heating to 110° C. for 10 minutes.
# (§6) To prepare the TLC chamber for chromatography, Whatman (Clifton, N.J.) filter paper was cut into 20×80-cm strips and wrapped around the inside wall of a 30×60×10-cm glass development chamber. One hundred milliliters of the appropriate mobile phase was added to the chamber, and the chambers were sealed and allowed to equilibrate. Chambers were considered equilibrated when the solvent front had completely ascended the filter paper. The mobile phase employed for the separation of phospholipid classes (lyso-phospholipids, sphingomyelin, phosphatidylcholine, phosphatidylserine, phosphatidylethanolamine and cardiolipin) was a modification of the solvent system described by Holub and Skeaf (“Nutritional regulation of cellular phosphatidylinositol,” in Meth. Enzym., ed. Conn (Academic Press, Inc., Orlando), pp. 234-243, 1987) consisting of chloroform/methanol/acetic acid/water (100:67:7:4, by vol).
# (§7) For the separation of neutral lipid classes (free fatty acids, free sterols, triacylglycerides and cholesterol esters), a solvent system consisting of petroleum ether/diethyl ether/acetic acid (80:20:1, by vol) was used (Mangold, Thin Layer Chromatography— A Laboratory Handbook (Springer-Verlag, New York), 1969).
# liver lipid metabolome = details: treated mice
# Procedure: as §1, §2, §3, §4, §5, §6, §7
# [1] = system: inguinal adipose lipid metabolome
# Procedure: as §1, §2
# The lipids from plasma and tissues were extracted in the presence of authentic internal standards by the method of Folch et al. (J. Biol. Chem. 226, 497-509, 1957) by homogenization in a fluid extractant consisting of chloroform:methanol (2:1 vol:vol). Plasma (200 μl), or 10 mg inguinal adipose tissue was used for each analysis. For each sample, an appropriate mass of internal standard was added. The internal standard compounds chosen may take many forms, but in one specific example the internal standards added to each plasma sample were: 1.75 μg of heptadecanoic 1-heptadecanoyl-2-lyso-phosphatidycholine (for lysophospholipids), 2.25 micrograms of N-pentadecenoyl-D-erythro-sphingosylphorylcholine (for sphingomyelin), 39.93 micrograms of 1,2 diheptadecanoylphosphatidylcholine (for phosphatidylcholine), 0.93 micrograms of 1,2-diheptadecenoylphosphatidylethanolamine (for phosphatidylethanolamine), 2.09 micrograms of pentadecaenoic acid (for free fatty acids), 32.93 micrograms of triheptadecaenoic acid (for triacylglycerides), 27.27 micrograms of cholesteryl heptadecanoate (for cholesterol esters) and 38.03 micrograms of stigmasterol (for free sterols).
# as §4, §5
# To prepare the TLC chamber for chromatography, Whatman (Clifton, N.J.) filter paper was cut into 20×80-cm strips and wrapped around the inside wall of a 30×60×10-cm glass development chamber. One hundred milliliters of the appropriate mobile phase was added to the chamber, and the chambers were sealed and allowed to equilibrate. Chambers were considered equilibrated when the solvent front had completely ascended the filter paper.
# [2] = Body weight, glycemia, insulin and hepatic steatosis in rosiglitazone-treated (NZO×NON)F1 male mice; assay type: in vivo, mouse
# [3] = humans; cited from earlier work
# plasma lipids = test: Lipomic assessment of CL316,243-treated NZO mice (trial 2), targeting graph versus rosiglitazone; assay type: in vivo, mouse
# Description: In a targeting display, quantitative metabolite data is compared from two samples that have been subjected to different treatments, for instance treatment with two different drugs or a drug and a test compound. The percentage or absolute changes (versus the standard sample) in the measured metabolites are plotted against each other on a Cartesian graph. This visual system facilitates the comparison of the global and individual metabolic effects of the two conditions being examined. If the two treatments (e.g., two drug treatments) affect the biological system in metabolically similar ways, the data points will fall along a line with a slope of 1, running through the origin (from the lower left to the upper right quadrant, in other words). Outlier data points, where one treatment or the other has a different effect on a metabolite, will lie in the upper left or lower right quadrants, and are therefore easily identified. […] The further off the “equivalent” slope a data point is, the greater the magnitude of differential effect that is being illustrated.
# The metabolites found in the lower left and the upper right quadrants of the scatter plot (especially those where the X and Y values are similar) represent those likely affected by similar molecular mechanisms. […]
# [4] = amount in parentheses after the % greater
# [5] = treated vs control mice, FIG. 5
smiles,measurement,setting,value
CN(CCOc1ccc(CC2SC(=O)NC2=O)cc1)c1ccccn1 (stereo not drawn) [rosiglitazone],"14:0 fatty acid associated with heart sphingomyelin, more than the control sample","heart lipid metabolome; FIG. 5 heat map, test sample vs control sample",80%
same,Docosahexaenoic acid (22:6n3) in heart cardiolipin,"heart lipid metabolome; treated mice, control 2,200 nmol/g",950 nmol/g
same,linoleic acid (18:2n6) in heart cardiolipin,"heart lipid metabolome; treated mice, control 4,550 nmol/g","8,850 nmol/g"
same,mean cardiolipin content of hearts,"heart lipid metabolome; treated mice, untreated 2,500 nmol/g","3,000 nmol/g"
same,average concentration of total free fatty acids in the heart,"heart lipid metabolome; treated mice, untreated 5,100 nmol/g","2,500 nmol/g"
same,"heart free fatty acids of the saturated n-3, n-6, and n-9 families, lower than in untreated mice","heart lipid metabolome; treated vs untreated mice, FIG. 7",approximately 50%
same,liver sphingomyelin concentration,"liver lipid metabolome; untreated 1,890 nmol/g","1,180 nmol/g"
same,Total hepatic triacylglycerides,"liver lipid metabolome; untreated 81,300 nmol/g","150,400 nmol/g"
same,"docosahexaenoic acid in inguinal fat triacylglycerides, greater concentration than control",[1]; [4],"7,000 nmol/g"
same,"eicosapentaenoic acid in inguinal fat triacylglycerides, greater concentration than control",[1]; [4],"4,100 nmol/g"
same,"a-linolenic acid in inguinal fat triacylglycerides, more than control",[1]; amount in parentheses after the % more,"24,300 nmol/g"
same,concentration of total n-3 fatty acids in the inguinal fat triacylglycerides,[1]; treated mice,"71,260 nmol/g"
same,inguinal fat triacylglyceride content,[1]; treated mice,"9,628 μmol/g"
same,inguinal fat free fatty acids,"[1]; treated mice, controls 9,900 nmol/g","13,370 nmol/g"
same,concentration of n-7 fatty acids in inguinal fat triacylglycerides,"[1]; treated mice, untreated 204 μmol/g",303 µmol/g
same,"inguinal fat free fatty acids, more than controls",[1]; treated vs control mice,35%
same,"inguinal fat triacylglyceride content, lower than controls",[1]; treated vs control mice,5.7%
same,"a-linolenic acid in inguinal fat triacylglycerides, more than control",[1]; [5],84%
same,"docosahexaenoic acid in inguinal fat triacylglycerides, greater concentration than control",[1]; [5],612%
same,"eicosapentaenoic acid in inguinal fat triacylglycerides, greater concentration than control",[1]; [5],522%
same,"total concentration of n-6 fatty acids in inguinal fat, higher than untreated",[1]; treated vs untreated mice,less than 3%
same,"total n-3 fatty acids in inguinal fat triacylglycerides, greater than in untreated mice",[1]; treated vs untreated mice,120%
same,body weight,[2]; markedly-obese (NZO×NON)F1 male mice,increase in body weight
same,hepatic steatosis,[2]; treated animals,severe hepatic steatosis
same,weight gain,[3],often accompanied by weight gain
"C[C@H](Cc1ccc2c(c1)OC(C(=O)[O-])(C(=O)[O-])O2)NC[C@H](O)c1cccc(Cl)c1.[Na+].[Na+] [CL316,243]",similarity of effect on plasma lipids to rosiglitazone,"plasma lipids; targeting graph FIG. 6, NZO mice, 0.001% in chow, four weeks",largely validated
same,increase in the de novo synthesis of fatty acids,"plasma lipids; targeting graph FIG. 6, upper left quadrant metabolites (16:1n7, 18:1n7, 20:3n9)",not induced
